Values of other authors, collected in PubChem BioAssay AID1259409 (Chemical Carcinogenesis Research Information System (CCRIS), 2018).
Several values for one entry are separate records, joined by “and”; a condition that tells them apart may be missing. Identical values can stand only once.

Test system: rodent chemically induced tumor inhibition, incidence and multiplicity
Test: CCRIS tumor inhibitor studies

SMILES: CC(C)=CCC/C(C)=C/COc1c2ccoc2cc2oc(=O)ccc12
- tumour outcome (control, treated, inhibition, significance) (Carcinogen: 7,12-DIMETHYLBENZ[A]ANTHRACENE, 57-97-6, Dose [Inhibitor]: 0, 400 NMOL ONCE APPLIED 5 MIN PRIOR TO CARCINOGEN DOSE (STUDY DURATION: 25 WK), Route [Inhibitor]: DERMAL, Species: MOUSE, Strain/Sex: SENCAR, Target Tissue: Type of Lesion: SKIN: PAPILLOMA, Dose [Carcinogen]: 10 NMOL ONCE, Promoter: 12-O-TETRADECANOYLPHORBOL-13-ACETATE, 16561-29-8): 96%, 100%, -4%, not significant
- tumour outcome (control, treated, inhibition, significance) (Carcinogen: 7-12-DIMETHYLBENZ[A]ANTHRACENE, 57-97-6, Dose [Inhibitor]: 0, 800 NMOL ONCE APPLIED 5 MIN PRIOR TO CARCINOGEN DOSE (STUDY DURATION: 25 WK), Route [Inhibitor]: DERMAL, Species: MOUSE, Strain/Sex: SENCAR, Target Tissue: Type of Lesion: SKIN: PAPILLOMA, Dose [Carcinogen]: 10 NMOL ONCE, Promoter: 12-O-TETRADECANOYLPHORBOL-13-ACETATE, 16561-29-8): 96%, 100%, -4%, not significant and 93%, 96%, -3%, not significant
- tumour outcome (control, treated, inhibition, significance) (Carcinogen: BENZO[A]PYRENE, 50-32-8, Dose [Inhibitor]: 0, 20 NMOL ONCE APPLIED 5 MIN PRIOR TO CARCINOGEN DOSE (STUDY DURATION: 25 WK), Route [Inhibitor]: DERMAL, Species: MOUSE, Strain/Sex: SENCAR, Target Tissue: Type of Lesion: SKIN: PAPILLOMA, Dose [Carcinogen]: 200 NMOL ONCE, Promoter: 12-O-TETRADECANOYLPHORBOL-13-ACETATE, 16561-29-8): 91%, 100%, -10%, not significant
- tumour outcome (control, treated, inhibition, significance) (Carcinogen: BENZO[A]PYRENE, 50-32-8, Dose [Inhibitor]: 0, 100 NMOL ONCE APPLIED 5 MIN PRIOR TO CARCINOGEN DOSE (STUDY DURATION: 25 WK), Route [Inhibitor]: DERMAL, Species: MOUSE, Strain/Sex: SENCAR, Target Tissue: Type of Lesion: SKIN: PAPILLOMA, Dose [Carcinogen]: 200 NMOL ONCE, Promoter: 12-O-TETRADECANOYLPHORBOL-13-ACETATE, 16561-29-8): 91%, 87%, 4%, not significant
- tumour outcome (control, treated, inhibition, significance) (Carcinogen: BENZO[A]PYRENE, 50-32-8, Dose [Inhibitor]: 0, 400 NMOL ONCE APPLIED 5 MIN PRIOR TO CARCINOGEN DOSE (STUDY DURATION: 25 WK), Route [Inhibitor]: DERMAL, Species: MOUSE, Strain/Sex: SENCAR, Target Tissue: Type of Lesion: SKIN: PAPILLOMA, Dose [Carcinogen]: 200 NMOL ONCE, Promoter: 12-O-TETRADECANOYLPHORBOL-13-ACETATE, 16561-29-8): 91%, 92%, -1%, not significant
- tumour outcome (control, treated, inhibition, significance) (Carcinogen: BENZO[A]PYRENE, 50-32-8, Dose [Inhibitor]: 0, 800 NMOL ONCE APPLIED 5 MIN PRIOR TO CARCINOGEN DOSE (STUDY DURATION: 25 WK), Route [Inhibitor]: DERMAL, Species: MOUSE, Strain/Sex: SENCAR, Target Tissue: Type of Lesion: SKIN: PAPILLOMA, Dose [Carcinogen]: 200 NMOL ONCE, Promoter: 12-O-TETRADECANOYLPHORBOL-13-ACETATE, 16561-29-8): 91%, 82%, 10%, not significant

SMILES: CC1=C(/C=C/C(C)=C\C=C\C(C)=C\C(=O)O)C(C)(C)CCC1
- outcome (Carcinogen: 4-(Methylnitrosamino)-1-(3-pyridyl)-1-butanone [64091-91-4] (NNK), Dose [Inhibitor]: 0, 7.5, 15, 30 mg/kg in diet for 17 wks, study duration 17 wks, Dose [Inhibitor]: 0, 7.5, 15, 30 mg/kg in diet for 17 wks, study duration 17 wks, Route [Inhibitor]: Oral, Species: Mouse, Strain/Sex: A/J/Male, Target Tissue: Type of Lesion: Lung, Dose [Carcinogen]: 100 mg NNK/kg bw once at 8 wks of age, study duration 17 wks): 14/14 (100%); 13/14 (93%); 14/14 (100%); 11/13 (85%)
- tumour outcome (control, treated, inhibition, significance) (Carcinogen: N-METHYL-N-NITROSOUREA, 684-93-5, Dose [Inhibitor]: 0, 3.3 UG/KG OF DIET FOR 147 D (STUDY DURATION: 150 D), Route [Inhibitor]: ORAL, Species: RAT, Strain/Sex: SPRAGUE-DAWLEY/FEMALE, Target Tissue: Type of Lesion: MAMMARY GLAND: ADENOCARCINOMA, Dose [Carcinogen]: 50 MG/KG BW ONCE 3 D BEFORE INITIAL INHIBITOR DOSE, Promoter: NONE USED): 25/25 (100%), 25/25 (100%), 0%, not significant
- tumour outcome (control, treated, inhibition, significance) (Carcinogen: N-METHYL-N-NITROSOUREA, 684-93-5, Dose [Inhibitor]: 0, 10 UG/KG OF DIET FOR 147 D (STUDY DURATION: 150 D), Route [Inhibitor]: ORAL, Species: RAT, Strain/Sex: SPRAGUE-DAWLEY/FEMALE, Target Tissue: Type of Lesion: MAMMARY GLAND: ADENOCARCINOMA, Dose [Carcinogen]: 50 MG/KG BW ONCE 3 D BEFORE INITIAL INHIBITOR DOSE, Promoter: NONE USED): 25/25 (100%), 25/25 (100%), 0%, not significant
- tumour outcome (control, treated, inhibition, significance) (Carcinogen: N-METHYL-N-NITROSOUREA, 684-93-5, Dose [Inhibitor]: 0, 50 MG/KG OF DIET BEGINNING 1 WK PRIOR TO CARCINOGEN DOSE (STUDY DURATION: 14 MO), Route [Inhibitor]: ORAL, Species: RAT, Strain/Sex: WISTAR-UNILEVER/MALE, Target Tissue: Type of Lesion: PROSTATE: ADENOCARCINOMA, Dose [Carcinogen]: 30 MG/KG BW ONCE ADMINISTERED TO RATS PRETREATED WITH 50 MG OF CYPROTERONE ACETATE BY GAVAGE FOR 21 CONSECUTIVE DAYS THE, Promoter: TESTOSTERONE, 58-22-0): 22/34 (65%), 8/40 (20%), 70%, p<0.001
- tumour outcome (control, treated, inhibition, significance) (Carcinogen: N-METHYL-N-NITROSOUREA, 684-93-5, Dose [Inhibitor]: 0, 60 MG/KG OF DIET FOR 147 D (STUDY DURATION: 150 D), Route [Inhibitor]: ORAL, Species: RAT, Strain/Sex: SPRAGUE-DAWLEY/FEMALE, Target Tissue: Type of Lesion: MAMMARY GLAND: ADENOCARCINOMA, Dose [Carcinogen]: 50 MG/KG BW ONCE 3 D BEFORE INITIAL INHIBITOR DOSE, Promoter: NONE USED): 25/25 (100%), 24/25 (96%), 4%, not significant
- tumour outcome (control, treated, inhibition, significance) (Carcinogen: N-METHYL-N-NITROSOUREA, 684-93-5, Dose [Inhibitor]: 0, 60 MG/KG OF DIET FOR DURATION OF STUDY BEGINNING 1 WK POST CARCINOGEN DOSE (STUDY DURATION: 5 MO), Route [Inhibitor]: ORAL, Species: RAT, Strain/Sex: SPRAGUE-DAWLEY/FEMALE, Target Tissue: Type of Lesion: MAMMARY GLAND: TUMOR, Dose [Carcinogen]: 50 MG/KG BW ONCE, Promoter: NONE USED): 23/24 (96%), 9/12 (75%), 22%, p=0.1 and 29/30 (97%), 24/30 (80%), 18%, p=0.1
- tumour outcome (control, treated, inhibition, significance) (Carcinogen: N-METHYL-N-NITROSOUREA, 684-93-5, Dose [Inhibitor]: 0, 100 MG/KG OF DIET BEGINNING 1 WK PRIOR TO CARCINOGEN DOSE (STUDY DURATION: 14 MO), Route [Inhibitor]: ORAL, Species: RAT, Strain/Sex: WISTAR-UNILEVER/MALE, Target Tissue: Type of Lesion: PROSTATE: ADENOCARCINOMA, Dose [Carcinogen]: 30 MG/KG BW ONCE ADMINISTERED TO RATS PRETREATED WITH 50 MG OF CYPROTERONE ACETATE BY GAVAGE FOR 21 CONSECUTIVE DAYS THE, Promoter: TESTOSTERONE, 58-22-0): 22/34 (65%), 7/38 (18%), 72%, p<0.001
- tumour outcome (control, treated, inhibition, significance) (Carcinogen: N-METHYL-NITROSOUREA [684-93-5], Dose [Inhibitor]: 60 MG/KG DIET BEGINNING 3 D POST-CARCINOGEN DOSE (STUDY DURATION: 150 D), Route [Inhibitor]: ORAL, Species: RAT, Strain/Sex: SPRAGUE-DAWLEY/FEMALE, Target Tissue: Type of Lesion: MAMMARY GLAND: ADENOCARCINOMA, Dose [Carcinogen]: 50 MG/KG BW ONCE AT 50 D OF AGE): 25/25 (100%); 24/25 (96%), 4%, not significant
- tumour outcome (control, treated, inhibition, significance) (Carcinogen: N-NITROSO-N-METHYLUREA, 684-93-5, Dose [Inhibitor]: 0, 60 MG/KG OF DIET FOR 3 MO BEGINNING 1 WK POST CARCINOGEN DOSE (STUDY DURATION: 100 D), Route [Inhibitor]: ORAL, Species: RAT, Strain/Sex: SPRAGUE-DAWLEY/FEMALE, Target Tissue: Type of Lesion: MAMMARY GLAND: TUMOR, Dose [Carcinogen]: 50 MG/KG BW ONCE, Promoter: NONE USED): 100%, 58%, 42%, p<0.002
- tumour outcome (control, treated, inhibition, significance) (Carcinogen: N-NITROSO-N-METHYLUREA, 684-93-5, Dose [Inhibitor]: 0, 60 MG/KG OF DIET FOR 4.5 MO BEGINNING 1 WK POST CARCINOGEN DOSE (STUDY DURATION: 100 D), Route [Inhibitor]: ORAL, Species: RAT, Strain/Sex: SPRAGUE-DAWLEY/FEMALE, Target Tissue: Type of Lesion: MAMMARY GLAND: TUMOR, Dose [Carcinogen]: 50 MG/KG BW ONCE, Promoter: NONE USED): 96%, 75%, 22%, not significant
- tumour outcome (control, treated, inhibition, significance) (Carcinogen: N-NITROSO-N-METHYLUREA, 684-93-5, Dose [Inhibitor]: 0, 120 MG/KG OF DIET FOR 3 MO BEGINNING 1 WK POST CARCINOGEN DOSE (STUDY DURATION: 100 D), Route [Inhibitor]: ORAL, Species: RAT, Strain/Sex: SPRAGUE-DAWLEY/FEMALE, Target Tissue: Type of Lesion: MAMMARY GLAND: TUMOR, Dose [Carcinogen]: 50 MG/KG BW ONCE, Promoter: NONE USED): 100%, 25%, 75%, p<0.001
- tumour outcome (control, treated, inhibition, significance) (Carcinogen: N-NITROSO-N-METHYLUREA, 684-93-5, Dose [Inhibitor]: 0, 120 MG/KG OF DIET FOR 4.5 MO BEGINNING 1 WK POST CARCINOGEN DOSE (STUDY DURATION: 100 D), Route [Inhibitor]: ORAL, Species: RAT, Strain/Sex: SPRAGUE-DAWLEY/FEMALE, Target Tissue: Type of Lesion: MAMMARY GLAND: TUMOR, Dose [Carcinogen]: 50 MG/KG BW ONCE, Promoter: NONE USED): 96%, 42%, 56%, p<0.001

SMILES: COc1cc2c(cc1OC)[C@]1(O)C(=O)c3ccc4c(c3O[C@@H]1CO2)C=CC(C)(C)O4
- tumour outcome (control, treated, inhibition, significance) (Carcinogen: 7,12-DIMETHYLBENZ[A]ANTHRACENE, 57-97-6, Dose [Inhibitor]: 0, 85 NMOL 2/WK BEGINNING 1 WK POST CARCINOGEN DOSE (STUDY DURATION: 20 WK), Route [Inhibitor]: DERMAL, Species: MOUSE, Strain/Sex: ICR/FEMALE, Target Tissue: Type of Lesion: SKIN: PAPILLOMA, Dose [Carcinogen]: 390 NMOL, Promoter: 12-O-TETRADECANOYLPHORBOL-13-ACETATE, 16561-29-8): 100%, 40%, 60%, not calculated
